In patent US7642245B2, “Antibacterial compounds having a (pyrrole carboxamide)-(benzamide)-(imidazole carboxamide) motif” (Oscient Pharmaceuticals Corporation, priority 2002, dated 2010):

Experiments:
[1] = test system: E. coli ATCC 25922; test: MIC, NCCLS broth microdilution; assay type: cell-based, Escherichia coli; conditions: G = E. coli ATCC 25922
Excerpt: (§1) In vitro biological activity data were collected for a variety of microorganisms, including Staphylococcus aureus (ATCC 27660, a methicillin resistant strain (MRSA); ATCC 13709, a methicillin sensitive strain (MSSA)), Enterococcus faecalis (ATCC 29212), Bacillus cereus (ATCC 11778), Streptococcus pneumoniae (ATCC 49619), Candida albicans (ATCC 38247), Escherichia coli (ATCC 25922), and Moraxella (now Branhamella) catarrhalis (ATCC 25238).
(§2) The minimal inhibition concentration (MIC) of these compounds was determined using the National Committee for Clinical Laboratory Standards (NCCLS) broth microdilution assay in microtiter plates, as set forth in: (1) the guidelines of the National Committee for Clinical Laboratory Standards (NCCLS) Document M7-A4 (NCCLS, 1997); (2) the guidelines of the National Committee for Clinical Laboratory Standards (NCCLS) Document M11-A4 (NCCLS, 1997); and (3) the guidelines and reference method of the National Committee for Clinical Laboratory Standards (NCCLS) Document M27-T (NCCLS, 1995). For antifungal assays, the method recommended in Murray, P R., 1995 Manual of Clinical Microbiology (ASM Press, Washington, DC.), was employed.

[2] = test system: C. albicans ATCC 38247; test: MIC, antifungal assay; assay type: cell-based, Candida albicans; conditions: F = C. albicans ATCC 38247
Excerpt: as §1, §2

[3] = test system: E. faecalis ATCC 29212; test: MIC, NCCLS broth microdilution; assay type: cell-based, Enterococcus faecalis; conditions: C = E. faecalis ATCC 29212
Excerpt: as §1, §2

[4] = test system: B. cereus ATCC 11778; test: MIC, NCCLS broth microdilution; assay type: cell-based, Bacillus cereus; conditions: D = B. cereus ATCC 11778
Excerpt: as §1, §2

[5] = test system: S. aureus ATCC 13709; test: MIC, NCCLS broth microdilution; assay type: cell-based, Staphylococcus aureus; conditions: A = S. aureus ATCC 13709 (MSSA)
Excerpt: as §1, §2

[6] = test system: S. aureus ATCC 27660; test: MIC, NCCLS broth microdilution; assay type: cell-based, Staphylococcus aureus; conditions: B = S. aureus ATCC 27660 (MRSA)
Excerpt: as §1, §2

[7] = test system: S. pneumoniae ATCC 49619; test: MIC, NCCLS broth microdilution; assay type: cell-based, Streptococcus pneumoniae; conditions: E = S. pneumoniae ATCC 49619
Excerpt: as §1, §2

[8] = test system: M. catarrhalis (ATCC 25238); test: MIC, NCCLS broth microdilution; assay type: cell-based, Moraxella (now Branhamella) catarrhalis; conditions: H = M. catarrhalis (ATCC 25238)
Excerpt: as §1, §2

Minimum Inhibitory Concentration (MIC) [1] | Minimum Inhibitory Concentration (MIC) [2] | Minimum Inhibitory Concentration (MIC) [3] | Minimum Inhibitory Concentration (MIC) [4] | Minimum Inhibitory Concentration (MIC) [5] | Minimum Inhibitory Concentration (MIC) [6] | Minimum Inhibitory Concentration (MIC) [7] | Minimum Inhibitory Concentration (MIC) [8] | Compound
>32 µg/mL | >32 µg/mL | +++ (MIC ≦ 4 μg/mL) | +++ (MIC ≦ 4 μg/mL) | +++ (MIC ≦ 4 μg/mL) | +++ (MIC ≦ 4 μg/mL) | +++ (MIC ≦ 4 μg/mL) | +++ (MIC ≦ 4 μg/mL) | CCN1CCN(CCNC(=O)c2nc(NC(=O)c3ccc(NC(=O)c4cc(NC(=O)c5cc6ccccc6cn5)cn4C)cc3)cn2C)CC1 [Compound A-13]
>32 µg/mL | >32 µg/mL | +++ (MIC ≦ 4 μg/mL) | +++ (MIC ≦ 4 μg/mL) | +++ (MIC ≦ 4 μg/mL) | +++ (MIC ≦ 4 μg/mL) | +++ (MIC ≦ 4 μg/mL) | +++ (MIC ≦ 4 μg/mL) | CCCCN1CCN(CCNC(=O)c2nc(NC(=O)c3ccc(NC(=O)c4cc(NC(=O)c5cc6ccccc6cn5)cn4C)cc3)cn2C)CC1 [Compound A-14]
>32 µg/mL | >32 µg/mL | +++ (MIC ≦ 4 μg/mL) | +++ (MIC ≦ 4 μg/mL) | +++ (MIC ≦ 4 μg/mL) | +++ (MIC ≦ 4 μg/mL) | +++ (MIC ≦ 4 μg/mL) | +++ (MIC ≦ 4 μg/mL) | CC(C)N1CCN(CCNC(=O)c2nc(NC(=O)c3ccc(NC(=O)c4cc(NC(=O)c5cc6ccccc6cn5)cn4C)cc3)cn2C)CC1 [Compound A-15]
+++ (MIC ≦ 4 μg/mL) | >32 µg/mL | +++ (MIC ≦ 4 μg/mL) | +++ (MIC ≦ 4 μg/mL) | +++ (MIC ≦ 4 μg/mL) | +++ (MIC ≦ 4 μg/mL) | +++ (MIC ≦ 4 μg/mL) | +++ (MIC ≦ 4 μg/mL) | Cn1cc(NC(=O)c2cc3ccccc3cn2)cc1C(=O)Nc1ccc(C(=O)Nc2cn(C)c(C(=O)NCCN3CCCC3)n2)cc1 [Compound A-16]
+++ (MIC ≦ 4 μg/mL) | + (12 ≦ MIC ≦ 32 μg/mL) | +++ (MIC ≦ 4 μg/mL) | +++ (MIC ≦ 4 μg/mL) | +++ (MIC ≦ 4 μg/mL) | +++ (MIC ≦ 4 μg/mL) | +++ (MIC ≦ 4 μg/mL) | +++ (MIC ≦ 4 μg/mL) | Cn1cc(NC(=O)c2cc3ccccc3cn2)cc1C(=O)Nc1ccc(C(=O)Nc2cn(C)c(C(=O)NCCN3CCCCC3)n2)cc1 [Compound A-17]
>32 µg/mL | >32 µg/mL | +++ (MIC ≦ 4 μg/mL) | +++ (MIC ≦ 4 μg/mL) | +++ (MIC ≦ 4 μg/mL) | +++ (MIC ≦ 4 μg/mL) | +++ (MIC ≦ 4 μg/mL) | +++ (MIC ≦ 4 μg/mL) | Cn1cc(NC(=O)c2cc3ccccc3cn2)cc1C(=O)Nc1ccc(C(=O)Nc2cn(C)c(C(=O)NCCN3CCSCC3)n2)cc1 [Compound A-18]
+ (12 ≦ MIC ≦ 32 μg/mL) | >32 µg/mL | +++ (MIC ≦ 4 μg/mL) | +++ (MIC ≦ 4 μg/mL) | +++ (MIC ≦ 4 μg/mL) | +++ (MIC ≦ 4 μg/mL) | +++ (MIC ≦ 4 μg/mL) | +++ (MIC ≦ 4 μg/mL) | Cn1cc(NC(=O)c2cc3ccccc3cn2)cc1C(=O)Nc1ccc(C(=O)Nc2cn(C)c(C(=O)NCCN3CCC(O)CC3)n2)cc1 [Compound A-19]
